According to article PMC7249060, “The Antiproliferative Effects of Flavonoid MAO Inhibitors on Prostate Cancer Cells” (Molecules, 2020):

How the values were obtained:
[1] = biological target: T1, hMAO-A (Homo sapiens, UniProt P21397); test: MAO-Glow luminescence screen of KKRs at 100 μM; type: biochemical; details: 100 μM screen
T1 construct: purchased Sigma-Aldrich Co. (St. Louis, MO, USA)
T1 sequence (P21397 1-527): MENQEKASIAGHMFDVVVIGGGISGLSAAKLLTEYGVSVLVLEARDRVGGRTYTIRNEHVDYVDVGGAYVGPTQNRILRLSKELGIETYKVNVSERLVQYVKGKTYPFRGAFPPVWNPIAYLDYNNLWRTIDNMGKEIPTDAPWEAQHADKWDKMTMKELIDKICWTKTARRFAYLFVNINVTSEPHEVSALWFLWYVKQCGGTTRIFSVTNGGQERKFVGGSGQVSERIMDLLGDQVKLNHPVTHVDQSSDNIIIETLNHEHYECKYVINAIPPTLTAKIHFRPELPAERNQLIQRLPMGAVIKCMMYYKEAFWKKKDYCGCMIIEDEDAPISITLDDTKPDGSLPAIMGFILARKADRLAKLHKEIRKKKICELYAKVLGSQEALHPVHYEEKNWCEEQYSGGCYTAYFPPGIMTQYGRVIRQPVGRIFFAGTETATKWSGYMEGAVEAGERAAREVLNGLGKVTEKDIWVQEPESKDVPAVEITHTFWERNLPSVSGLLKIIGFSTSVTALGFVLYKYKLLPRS
Method: (§1) We optimized our control hMAO-A and hMAO-B isozymes reactions in the incubation condition, at 37 °C for 1 h, by performing a luminescence assay using the MAO-Glow™ kit. Upon arrival, each isozyme was diluted with 10 mM HEPES in cold HBSS of pH 7.4. Afterward, the diluted isozymes were kept at −80 °C until use. Enzyme concentration optimization was accomplished by testing ten 2X serially diluted hMAO-A and hMAO-B concentrations for a final range of 7.00–0.01 U/mL each. The tested isozymes were incubated with LDS of 40 and 4 μM for isozymes A and B, respectively (recommended by Promega protocol), and a maximum of used DMSO of 1% final concentration. Different isozyme concentrations reactions at their initial velocities were monitored. Consequently, their required concentrations were defined to be 0.44 U/mL each. Additionally, ten different LDS concentrations, ranging from 0.3–150 μM, were monitored for optimizing and validating the linearity of the initial reaction for the hMAO-A mode of action. Subsequently, we chose a saturated substrate of 75 μM as a required concentration for the hMAO-A enzyme kinetic reactions.
(§2) The inhibitory effects of the synthesized KKRs of hMAO-A and B were tested by measuring the decrease in arbitrary light units (ALU) signal produced by the optimized isozymes using the MAO-Glow™ Assay at 37 °C. In this assay, DMSO stock for each KKR compound was diluted with a reaction buffer of pH 7.4 to make a 4X working solution for a maximum final concentration of 100 μM and ≤1% DMSO. The experiments were run in the absence and presence of 4X the miscellaneous standards of MAO-BIs (DEP, PARG, and SAF) and MAO-AIs (PIRL and CLORG), with similar concentrations. In white opaque 96-well microplates, 12.5 μL of each compound was plated at RT and was followed by 25 μL of 2X cold hMAO-A or hMAO-B, for a final concentration of 0.44 U/mL. A related buffer substituted each isozyme to make the blank wells and substituted each compound to make the negative control wells. Following this, we added 12.5 μL of 4X LDS to make a final substrate concentration of 40- and 4-μM for hMAO-A and hMAO-B, respectively. All screen plates were incubated at 37 °C for 60 min. The plates of 50 μL/well were then taken out from the incubator, and their reactions were stopped by an equal volume of 50 μL of reporter luciferin detection reagent (RLDR). After 30 min, the luminescence signals for all plates were read on a Synergy HTX Multi-reader from Bio-Tek (Winooski, VT, USA).

[2] = biological target: T2, hMAO-B (Homo sapiens, UniProt P27338); test: MAO-Glow luminescence screen of KKRs at 100 μM; type: biochemical; details: 100 μM screen
T2 construct: purchased Sigma-Aldrich Co. (St. Louis, MO, USA)
T2 sequence (P27338 1-520): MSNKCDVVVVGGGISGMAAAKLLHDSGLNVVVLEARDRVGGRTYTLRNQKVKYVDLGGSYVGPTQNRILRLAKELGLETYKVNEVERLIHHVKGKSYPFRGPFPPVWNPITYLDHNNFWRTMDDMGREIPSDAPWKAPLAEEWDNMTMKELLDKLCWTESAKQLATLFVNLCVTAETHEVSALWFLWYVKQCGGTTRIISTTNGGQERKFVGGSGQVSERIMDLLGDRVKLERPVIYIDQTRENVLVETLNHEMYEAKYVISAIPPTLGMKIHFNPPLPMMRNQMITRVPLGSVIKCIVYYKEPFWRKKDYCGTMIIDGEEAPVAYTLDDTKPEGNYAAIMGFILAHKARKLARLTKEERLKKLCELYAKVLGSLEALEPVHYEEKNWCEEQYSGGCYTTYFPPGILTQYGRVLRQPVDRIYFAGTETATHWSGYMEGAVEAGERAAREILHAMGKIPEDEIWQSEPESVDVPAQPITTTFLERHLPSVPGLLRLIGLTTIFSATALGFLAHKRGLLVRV
Method: as §1, §2

[3] = tested on: LNCaP cells; test: Viability screen assay, resazurin, 24 h; type: cell-based, human; details: 50 μM, 90% viability as margin of cytotoxicity
Method: We examined the cytotoxic effects of all 20 synthesized KKRs on the three human PCa cell lines LNCaP, DU145, and PC3, after a 24 h exposure period. Non-toxic TAX was used for comparison. Briefly, cultured cells were seeded in black transparent bottom 96-well microplates at 50,000 cells/175-µL/well in experimental media (RPMI1640 for LNCaP, EMEM for DU145, and DMEM/F12K for PC3), supplied with 5% FBS and 1% P/S. Wells of media without cells were considered blanks and negative controls. The plates were incubated overnight at 37 °C in 5% CO2 to allow cell attachment. For each compound, a working solution of 8X KKR in sterile […] HEPES in HBSS pH buffer of 7.4 was prepared for a final concentration of 50 μM each. The three attached cell types were treated immediately with the related buffer being added to the control wells. A sterile fluorescence-based solution of the resazurin reagent of 0.5 mg/mL in HBSS was prepared. After 24 h, the cells were exposed to 15% v/v of the sterile resazurin reagent, and the plates were re-incubated for 4.5 h to allow redox reaction. All plates were read under 530/590-nm excitation/emission wavelengths using Bio-Tek Synergy HTX Multi-reader as a microplate fluorescence reader.

[4] = tested on: DU145 cells; test: Antiproliferation screen assay, resazurin, 72 h; type: cell-based, human; details: 50 μM
Method: (§3) In this screen, we examined the growth inhibitory effects of all synthesized KKRs on the three human PCa cell lines LNCaP, DU145, and PC3. The antiproliferative clinical drug TAX of 0.25 μM was used as a positive control. Additionally, different standards of MAO-Is and FLUT were tested for their effect on the LNCaP cells. Briefly, the procedures and materials used were the same as for the viability assay except for the following—cultured cells were seeded at 10,000 cells/175-µL/well related experimental media, and the resazurin solution was added after 72 h of incubation with the compounds of 50 μM each.

[5] = tested on: LNCaP cells; test: Antiproliferation screen assay, resazurin, 72 h; type: cell-based, human; details: 50 μM
Method: as §3

[6] = tested on: PC3 cells; test: Antiproliferation screen assay, resazurin, 72 h; type: cell-based, human; details: 50 μM
Method: as §3

[7] = tested on: DU145 cells; test: Antiproliferation dose-response assay for 72 h; type: cell-based; details: Homo sapiens, DU-145; DU145, 72 h, mean ± SEM of two experiments; read-out: antiproliferative IC50
Method: (§4) For the top effective KKRs, along with TAX, their potency to reduce the affected PCa cell line growth in a dose-dependent manner was determined using the resazurin fluorescence assay. We followed the same protocols and materials used for the antiproliferation screen assays (Section 4.3.2), with the following modifications. The maximum final KKR concentration used was 40 μM. The concentration of 8X of each KKR working solution in 1% HEPES 7.4 was serially diluted in a 3:1 ratio, compound to buffer, respectively. Each data set was collected from ten data points of 3.7–40 μM range. The control had the KKR substituted with buffer. The related IC50 averages were analyzed for the compounds that affected the cell lines the most.

[8] = tested on: LNCaP cells; test: Antiproliferation dose-response assay for 72 h; type: cell-based; details: Homo sapiens, mean ± SEM of two experiments, read-out: antiproliferative IC50
Method: as §4

[9] = tested on: PC3 cells; test: Antiproliferation dose-response assay for 72 h; type: cell-based; details: Homo sapiens, PC-3; PC3, 72 h, mean ± SEM of two experiments; read-out: antiproliferative IC50
Method: as §4

MAO inhibitory property in MAO screen [1]: did not have MAO inhibitory properties
MAO inhibitory property in MAO screen [2]: did not have MAO inhibitory properties
IC50 [7]: 9 ± 0.5 µM
IC50 [8]: 21 ± 1 µM
IC50 [9]: 34 ± 1 µM
SMILES: COc1cc(O)c(C(=O)/C=C/c2cc(OC)c(OC)c(OC)c2)c(OC)c1 [KKR17, (E)-1-(2-hydroxy-4,6-dimethoxyphenyl)-3-(3,4,5-trimethoxyphenyl)prop-2-en-1-one]
cytotoxicity / cell viability [3]: affected the LNCaP cells
antiproliferative effect in screen [4]: top effective
antiproliferative effect in screen [5]: top five KKRs that kept standing out with antiproliferative effects
antiproliferative effect in screen [6]: effective against all investigated cell lines, including the metastatic PC3
